# Assay results as given in US20080255244A1, “CaM Kinase II Inhibitor Improves Retinoic Acid Therapy and Inhibits the Proliferation of Myeloid Leukemia Cells” (Fred Hutchinson Cancer Research Center, priority 2007, published 2008).
# What was measured:
# [1] = system: autophosphorylated CaMKIIγ in K562 cells; experiment: Western blot of CaMKIIγ autophosphorylation in K562 cells; type: cell-based, human; conditions: gleevec 5 uM, ATRA five days
# Protocol: (§1) FIG. 9. Terminal differentiation/apoptosis of myeloid leukemia cells is associated with decreased CaMKIIγ activation. (A) Lysates from the HL60, NB4 and U937 myeloid cell lines treated with ATRA (1 μM) for the indicated period of time were subjected to Western blots. (B) Lysates from the indicated myeloid cell lines treated for five days with the indicated concentration of ATRA were subjected to Western blots. (C) Lysates from HL60 cells treated with TPA (0.1 μM) for the indicated time were subjected to Western blots. (D) Lysates from NB4 cells treated with arsenic trioxide (1 uM) for the indicated time were subjected to Western blots.
# FIG. 10. Inhibiting bcr-abl activity/expression inhibits CaMKIIγ activation. (A) Lysates from K562 cells undergoing growth arrest following treatment with gleevec (5 uM) for the indicated times were subjected to Western blots. (B) Lysates from TonB210.1 cells depleted of doxycycline for the indicated period of time were subjected to Western blots. (C) IL-3 dependent TonB210.1 cells were deprived of IL-3 for 24 hours (lane 1). The cells were then treated with the indicated compounds simultaneously with the addition of doxycycline (lanes 2-8). After 24 hours cell lysates were harvested and subjected to Western blots with the indicated CaMKII antibodies. (D) K562 cells were cultured for 48 hours with the indicated chemical inhibitors of specific signal transduction pathways. Cell lysates were harvested and subjected to Western blot analysis.
# FIG. 12. CaMKII regulates multiple signal transduction pathways in myeloid cells. (A,B) Lysates from K562 cells cultured for the indicated time in KN93 were subjected to Western blots. (C) The K562 cells transduced as described in Materials and Methods with either (i) the doxycycline (DOX) inducible expression vector/transactivator harboring the full length, Lys^43 mutated, kinase dead CaMKIIγ (kdCaMKIIγ (Tet-on)) or (ii) the CaMKII shRNA generating plasmids, were cultured in liquid suspension in the presence or absence of DOX as indicated, and cell counts obtained after 48 hours. (D) Lysates from K562 cells transduced with the indicated vectors were subjected to Western blots utilizing the indicated antibodies. For lanes 2 and 4 doxycycline (DOX) treatment was for two days.
# Antibodies and Western blots. Protein extracts, immunoprecipitations and Western blots were performed as previously detailed (Si J, Collins S J. IL-3-induced enhancement of retinoic acid receptor activity is mediated through Stat5, which physically associates with retinoic acid receptors in an IL-3-dependent manner. Blood 100: 4401-9 (2002)). Antibodies against CaMKI, CaMKIIγ, CaMKIV, c-myc, Stat3, Stat5, calmodulin, as well as the phosphospecific CaMKII (T286, 287) and phosphospecific CaMKI (T177) antibodies were from Santa Cruz Biotechnology. Antibodies against phospho-Stat1 (Ser727), phospho-Stat3 (Ser727 and Tyr 705), phospho-Stat5 (Tyr 694), phospho-p44/42 MAP kinase (Thr202/Tyr 204), p44/42 MAP kinase, phospho-p38 MAP kinase (Thr 180/Tyr 182), phospho-GSK3β (Ser9) were from Cell Signaling Technology. Antibodies against Stat1, GSK3β, β-catenin, PP2Ac, and cyclin D1 were from BD Biosciences.
# [2] = system: C/EBPε expression in HL60; experiment: Western blot of C/EBPε expression in HL60 cells; type: cell-based, human; conditions: ATRA 1 uM
# Protocol: FIG. 6. Retinoic acid induces changes in the association of CaMKIIγ with the C/EBPε promoter RARE. […] (B) The human C/EBPε 5′ region indicating the location of the ChIP PCR primers. (C) ChIP assays. HL60 cell chromatin from cells treated with ATRA (1 uM) for the indicated time was immunoprecipitated with the indicated antibodies, the DNA isolated and subjected to PCR utilizing the indicated C/EBPε promoter primer pairs.
# Protein extracts, Western blotting and co-immunoprecipitations. Westerns and co-immunoprecipitations were performed as previously detailed (Si, J., and Collins, S. J., Blood 100:4401-4409 (2002)).
# RARα/N-CoR interaction = target: T1, RARα/N-CoR interaction (Homo sapiens, UniProt P10276); experiment: Mammalian two hybrid, Gal-N-CoR / RARαVP16, in MPRO promyelocytes; type: cell-based; conditions: ATRA six hours, KN62 48 hours
# T1 construct: expressed in transfected cells; host or cells: MPRO promyelocytes (murine), electroporated
# Text: (§2) Transient transfections and luciferase assays. Murine PT67 fibroblasts were transfected utilizing calcium phosphate precipitation. All hematopoietic cell lines were transiently transfected by electroporation as previously detailed (Johnson, B. et al., Molecular and Cellular Biology 19:3372-3382 (1999)). In the transient transfections the LXSN vector (M28248) served as the expression vector for the wild type and site-directed mutagenized CaMKII and RARα coding region cDNAs. Human cDNA homologous to the coding region of rat CaMKIINα, a CaMKII inhibitory protein, was obtained by RT-PCR from HL60 RNA and cloned into the LXSN vector. The RA-responsive luciferase reporter harbors the RARE from the RARβ2 promoter as previously detailed (Si, J., and Collins, S. J., Blood 100:4401-4409 (2002)). The PON838 plasmid, a β-galactosidase reporter driven by the β-actin promoter, was used as an internal control to determine transfection efficiency for calculating relative luciferase activity.
# [3] = system: activated CaMKIIγ in KG1 cells; experiment: Western blot of CaMKIIγ autophosphorylation in KG1 cells; type: cell-based, human; conditions: five days ATRA
# Protocol: as §1
# Antibodies and Western blots. Protein extracts, immunoprecipitations and Western blots were performed as previously detailed (Si J, Collins S J. IL-3-induced enhancement of retinoic acid receptor activity is mediated through Stat5, which physically associates with retinoic acid receptors in an IL-3-dependent manner. Blood 100: 4401-9 (2002)). Antibodies against CaMKI, CaMKIIγ, CaMKIV, c-myc, Stat3, Stat5, calmodulin, as well as the phosphospecific CaMKII (T286, 287) and phosphospecific CaMKI (T177) antibodies were from Santa Cruz Biotechnology. […]
# [4] = system: RAR transcriptional activity in HL60 cells; experiment: RARE-driven luciferase reporter in HL60 cells; type: cell-based, human; conditions: KN62 5 uM, KN93 5 uM, ATRA 1 uM, six hours
# Protocol: FIG. 1. CaM kinase isoform expression in hematopoietic cells. (A) The activity of an ATRA-responsive luciferase reporter (βRARE-tk-Luc, 25 μg) was assessed in electroporated HL60 cells six hours after treatment with the indicated concentrations of ionomycin and ATRA. (B) The activity of the luciferase reporter (βRARE-tk-Luc, 25 μg) was assessed in HL60 six hours after treatment with KN62 (5 uM), KN93 (5 uM) and ATRA (1 uM). (C) Western blots were performed utilizing the indicated antibodies. F9 (column 6) is a mouse embryonal carcinoma cell line. BaF3 (column 7) is a cultured pre-B cell line. BM cells (column 8) are kit-ligand dependent normal murine hematopoietic precursors. PT67 murine fibroblasts individually transduced with either rat CaMKIIα, human CaMKIα or human CaMKIV (column 9) together with brain lysates (column 1) serve as positive controls for the respective antibodies. (D) CaMK assays were performed on HL-60 cell lysates immunoprecipitated with the indicated antibodies.
# as §2
# CaMKs = conditions: inhibitors interfere with binding of Ca++/CaM to the CaMKs; cited from earlier work
# T1 sequence (P10276 whole entry): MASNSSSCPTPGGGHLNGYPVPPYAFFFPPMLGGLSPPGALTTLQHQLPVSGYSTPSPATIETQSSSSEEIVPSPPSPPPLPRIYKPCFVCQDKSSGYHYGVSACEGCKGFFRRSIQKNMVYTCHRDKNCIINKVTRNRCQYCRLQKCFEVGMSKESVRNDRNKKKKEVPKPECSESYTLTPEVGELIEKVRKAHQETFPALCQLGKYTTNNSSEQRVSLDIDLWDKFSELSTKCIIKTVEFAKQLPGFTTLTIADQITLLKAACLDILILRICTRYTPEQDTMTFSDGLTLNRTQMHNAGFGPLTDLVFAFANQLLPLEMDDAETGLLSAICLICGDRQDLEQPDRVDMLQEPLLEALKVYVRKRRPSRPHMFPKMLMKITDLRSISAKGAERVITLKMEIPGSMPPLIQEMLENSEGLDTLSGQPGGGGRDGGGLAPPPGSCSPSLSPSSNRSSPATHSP
Compound,"activated, autophosphorylated CaMKIIγ level [1]",C/EBPε expression [2],(UAS)5-driven luciferase reporter activity (RARα/N-CoR interaction) (RARα/N-CoR interaction),activated CaMKIIγ level [3],RAR transcriptional activity (βRARE-tk-Luc reporter) [4],IC50 (CaMKs)
"CC1=C(/C=C/C(C)=C/C=C/C(C)=C/C(=O)O)C(C)(C)CCC1 [ATRA, All-trans retinoic acid]",did not exhibit any decrease,enhanced,marked decrease,did not exhibit any decrease,,
CN([C@@H](Cc1ccc(OS(=O)(=O)c2cccc3cnccc23)cc1)C(=O)N1CCN(c2ccccc2)CC1)S(=O)(=O)c1cccc2cnccc12 [KN-62],,,significantly inhibits,,enhance,900 nM
COc1ccc(S(=O)(=O)N(CCO)c2ccccc2CN(C)C/C=C/c2ccc(Cl)cc2)cc1 [KN-93],time dependent reduction,,,,enhance,900 nM
